Source: ChEMBL document CHEMBL1201862, “PubChem BioAssay data set” (2004)
Active and inactive are the calls of the source.

Experiments:
[1] = target: Acyl-homoserine lactone acylase PvdQ (Pseudomonas aeruginosa (strain LESB58), UniProt Q9I194); test: PvdQ acylase enzyme activity blockers – biochemical, fluorescence, plate reader and imaging, cherry-picks, dose response (AID 493231)
[2] = Luminescence Cell-Based Dose Response HTS to Identify Activators of Luciferase Translation or Activity in H4 […] Cells. [Related pubchem assays: 1829 (Project Summary), 1814 (Primary HTS)]; type: functional
[3] = Luminescence Cell-Based Dose Response HTS to Identify Activators of 5'UTR Stem-Loop Driven Prion Protein mRNA Translation in H4-C Neuroglioblastoma Cells. [Related pubchem assays: 1829 (Project Summary), 1814 (Primary HTS)]; type: functional
[4] = Luminescence Cell-Based Dose Response HTS to Identify Activators of Luciferase Translation or Activity in H4-C Neuroglioblastoma Cells. [Related pubchem assays: 1829 (Project Summary), 1814 (Primary HTS)]; type: functional
[5] = test system: H4; test: Luminescence Cell-Based Dose Response HTS to Identify Activators of 5'UTR Stem-Loop Driven Prion Protein mRNA Translation in H4 Neuroglioblastoma Cells. [Related pubchem assays: 1829 (Project Summary), 1814 (Primary HTS)]; type: functional; settings: Homo sapiens
[6] = Luminescence Cell-Based Dose Confirmation HTS to Identify Activators of 5'UTR Stem-Loop Driven Alpha-Synuclein mRNA Translation in H4 Neuroglioblastoma Cells. [Related pubchem assays: 1829 (Project Summary), 1814 (Primary HTS)]; type: functional
[7] = Luminescence Cell-Based Dose Retest to Confirm Activators of 5'UTR Stem-Loop Driven Alpha-Synuclein mRNA Translation in H4 Neuroglioblastoma Cells. [Related pubchem assays (depositor defined):AID1813, AID1829]; type: functional
[8] = test system: HEK293; test: inhibition of NOD1-driven NF-kB reporter – cell-based, luminescence, uHTS, primary screen (AID 1578); type: functional; settings: Homo sapiens
[9] = test system: HEK293; test: cells; type: functional, cell-based; settings: Homo sapiens
[10] = test system: INS1; test: INS-1E survival protection against cytokine death – cell-based, luminescence, retest, dose response (AID 449756); type: functional; settings: Rattus norvegicus;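 also: cell death triggered by IL-1 beta plus TNF-alpha plus IFN-gamma mixture; protective hits raise ATP signal compared with cytokine alone wells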
[11] = test system: HEK293; test: cells; type: functional, cell-based; settings: Homo sapiens; remark: listed apart in the source
[12] = target: Paired box protein Pax-8 (Homo sapiens, UniProt Q06710); test: PAX8 transcriptional activity inhibition in RMG-I – RMG-I cells, luciferase, cherry-pick, dose response (AID 687027); type: functional, cell-based;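 also: luciferase reporter driven by Pax8 target thyroperoxidase promoter measured by SteadyGlo luminescence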
[13] = test system: HEK293; test: cells; type: functional, cell-based; settings: Homo sapiens; remark: listed apart in the source
[14] = test system: HEK293; test: NOD2 signaling inhibitors in MDP-stimulated cells, cell-based, uHTS, luminescence (AID 2001); type: functional; settings: Homo sapiens
[15] = target: Nucleotide-binding oligomerization domain-containing protein 2 (Homo sapiens, UniProt Q9HC29); test: inhibition of NOD2-driven NF-kB reporter – cell-based, luminescence, uHTS, HEK293 (AID 1566); type: functional
[16] = target: Scavenger receptor class B member 1 (Mus musculus, UniProt Q61009); test: mouse SR-BI DiI-HDL uptake blockers – ldlA[mSR-BI] cells, fluorescence, cherry pick, dose response (AID 493194); type: functional, cell-based;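 also: cellular uptake of fluorescent DiI-labeled HDL measured as cell fluorescence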
[17] = target: T1, Tyrosine-protein phosphatase non-receptor type 7 (Homo sapiens, UniProt P35236); test: SAR analysis of chemical inhibitors of HePTP using a Fluorescent assay - Set 2. [Related pubchem assays (depositor defined):AID1059, AID1077, AID1661, AID2085, AID521]; type: functional
T1 sequence (P35236 whole entry): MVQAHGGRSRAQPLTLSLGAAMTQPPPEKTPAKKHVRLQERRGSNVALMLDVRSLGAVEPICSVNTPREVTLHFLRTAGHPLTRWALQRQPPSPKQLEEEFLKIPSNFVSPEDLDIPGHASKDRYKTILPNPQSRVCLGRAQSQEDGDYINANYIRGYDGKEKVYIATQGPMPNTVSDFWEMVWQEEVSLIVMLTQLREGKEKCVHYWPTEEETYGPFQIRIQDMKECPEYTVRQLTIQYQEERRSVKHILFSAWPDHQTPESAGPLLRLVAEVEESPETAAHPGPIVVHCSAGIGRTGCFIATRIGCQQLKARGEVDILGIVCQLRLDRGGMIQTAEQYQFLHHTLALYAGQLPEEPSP

[18] = target: T2, Dual specificity protein phosphatase 3 (Homo sapiens, UniProt P51452); test: SAR VHR1 Fluorescent Assay for In Vitro dose response studies Set 2. [Related pubchem assays (depositor defined):AID1654, AID1661, AID1878]; type: functional
[19] = target: Intestinal-type alkaline phosphatase (Homo sapiens, UniProt P09923); test: Dose Response confirmation of uHTS hits from a small molecule inhibitors of human intestinal alkaline phosphatase via a luminescent assay. [Related pubchem assays (depositor defined):AID2544, AID2574]; type: functional
[20] = alpha-synuclein stem-loop luciferase translation blockers – H4 neuroglioma cells, luminescence, confirmation (AID 1988); type: functional, cell-based
[21] = target: Voltage-dependent T-type calcium channel subunit alpha-1H (Homo sapiens, UniProt O95180); type: functional;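 also: channel activity triggered by adding a high calcium stimulation buffer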
[22] = luciferase reporter signal suppression in cells – H4 neuroglioma cells, luminescence, dose response (AID 1990); type: functional, cell-based
[23] = target: T2, Dual specificity protein phosphatase 3; test: inhibition constants for human DUSP3 – biochemical, colorimetric, SAR follow-up (AID 2004)
[24] = target: Melanin-concentrating hormone receptor 1 (Homo sapiens, UniProt Q99705); test: Late-stage fluorescence-based counterscreen for antagonists of the G-protein coupled receptor 7 (GPR7): cell-based dose response assay to identify antagonists of the melanin-concentrating hormone receptor 1 (MCHR1). [Related pubchem assays (depositor defined):AID1861, AID1880, AID1952, AID2148, AID2251, AID2257, AID485339]; type: functional;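 also: stimulated with 30 nM MCH peptide agonist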
[25] = target: T3, Neuropeptides B/W receptor type 1 (Homo sapiens, UniProt P48145); test: human NPBW1 receptor blockade, IC50 – cell-based, fluorescence, dose response, late-stage follow-up (AID 463251); type: functional
T3 sequence (P48145 whole entry): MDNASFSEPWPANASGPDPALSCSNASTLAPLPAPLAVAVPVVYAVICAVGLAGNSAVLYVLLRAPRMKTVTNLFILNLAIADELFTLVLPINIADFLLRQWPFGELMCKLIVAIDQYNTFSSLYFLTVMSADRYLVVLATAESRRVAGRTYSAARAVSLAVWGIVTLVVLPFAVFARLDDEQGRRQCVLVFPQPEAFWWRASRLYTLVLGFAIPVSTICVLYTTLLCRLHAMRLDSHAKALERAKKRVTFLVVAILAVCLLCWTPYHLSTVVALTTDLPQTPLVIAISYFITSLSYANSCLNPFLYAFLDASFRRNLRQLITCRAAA

[26] = target: Kappa-type opioid receptor (Homo sapiens, UniProt P41145); test: SAR analysis of small molecule agonists of the kappa opioid receptor via a luminescent beta-arrestin assay - Set 2. [Related pubchem assays (depositor defined):AID1777, AID1785, AID1786, AID1966, AID2133, AID2136, AID2284, AID449737]; type: functional
[27] = test system: Trypanosoma cruzi; test: anti-trypanosomal activity in host cells – cell-based, plate reader, dry powder, set 3, dose response (AID 493197); type: functional
[28] = target: Neutrophil collagenase (Homo sapiens, UniProt P22894); test: potency against MMP13, MMP2, MMP3, MMP14 – biochemical, probe development, late stage results, selectivity assay for MMP13 inhibitor project, late-stage follow-up, panel member MMP-8 [IC50 Assay] (AID 2067)
[29] = target: Collagenase 3 (Homo sapiens, UniProt P45452); test: potency against MMP13, MMP2, MMP3, MMP14 – biochemical, probe development, late stage results, selectivity assay for MMP13 inhibitor project, late-stage follow-up, panel member MMP-13 [IC50 Assay] (AID 2067)
[30] = target: Cyclin-dependent kinase 5/CDK5 activator 1 (Homo sapiens, UniProt Q00535); test: blockade of human CDK5 activity – biochemical, cherry-picked samples, set 2, dose response (AID 504545)
Sequence of Cyclin-dependent kinase 5/CDK5 activator 1 (Q00535 whole entry): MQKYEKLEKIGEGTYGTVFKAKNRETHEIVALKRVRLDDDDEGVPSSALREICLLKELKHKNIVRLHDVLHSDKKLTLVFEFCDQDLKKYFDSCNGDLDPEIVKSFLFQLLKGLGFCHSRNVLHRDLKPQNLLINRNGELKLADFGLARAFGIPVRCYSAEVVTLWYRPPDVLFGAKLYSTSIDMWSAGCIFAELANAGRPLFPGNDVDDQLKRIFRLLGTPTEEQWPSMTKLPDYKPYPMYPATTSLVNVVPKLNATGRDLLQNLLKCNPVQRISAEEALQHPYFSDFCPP
Sequence of Cyclin-dependent kinase 5/CDK5 activator 1 (Q15078 whole entry, further chain): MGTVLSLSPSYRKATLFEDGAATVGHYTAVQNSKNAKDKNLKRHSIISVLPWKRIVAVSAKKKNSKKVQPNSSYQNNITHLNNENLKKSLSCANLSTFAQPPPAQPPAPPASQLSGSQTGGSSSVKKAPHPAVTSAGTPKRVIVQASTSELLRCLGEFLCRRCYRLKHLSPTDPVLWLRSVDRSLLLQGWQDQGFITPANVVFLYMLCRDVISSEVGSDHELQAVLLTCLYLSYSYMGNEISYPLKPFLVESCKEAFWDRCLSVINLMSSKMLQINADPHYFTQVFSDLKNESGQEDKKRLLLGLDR

T2 sequence (P51452 whole entry): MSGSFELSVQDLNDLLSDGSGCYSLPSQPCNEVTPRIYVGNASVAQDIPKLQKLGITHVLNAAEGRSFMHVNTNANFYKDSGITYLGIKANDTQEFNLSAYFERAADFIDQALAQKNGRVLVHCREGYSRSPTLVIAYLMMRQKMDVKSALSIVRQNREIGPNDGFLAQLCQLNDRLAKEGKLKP
Sequence of Scavenger receptor class B member 1 (Q61009 whole entry): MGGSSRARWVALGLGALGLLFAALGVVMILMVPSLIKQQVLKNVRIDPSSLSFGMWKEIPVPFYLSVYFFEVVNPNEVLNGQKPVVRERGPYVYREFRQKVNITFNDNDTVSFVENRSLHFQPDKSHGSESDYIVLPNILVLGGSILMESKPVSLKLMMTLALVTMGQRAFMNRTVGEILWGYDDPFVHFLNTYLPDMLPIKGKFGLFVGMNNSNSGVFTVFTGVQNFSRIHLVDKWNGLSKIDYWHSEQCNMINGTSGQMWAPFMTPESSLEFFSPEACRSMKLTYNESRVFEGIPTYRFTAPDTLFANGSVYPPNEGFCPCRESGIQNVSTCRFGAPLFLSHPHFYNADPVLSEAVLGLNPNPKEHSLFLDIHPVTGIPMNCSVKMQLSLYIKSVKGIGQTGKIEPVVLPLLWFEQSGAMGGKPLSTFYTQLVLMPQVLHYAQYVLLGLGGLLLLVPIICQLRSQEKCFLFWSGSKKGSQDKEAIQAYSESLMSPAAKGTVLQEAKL
Sequence of Kappa-type opioid receptor (P41145 whole entry): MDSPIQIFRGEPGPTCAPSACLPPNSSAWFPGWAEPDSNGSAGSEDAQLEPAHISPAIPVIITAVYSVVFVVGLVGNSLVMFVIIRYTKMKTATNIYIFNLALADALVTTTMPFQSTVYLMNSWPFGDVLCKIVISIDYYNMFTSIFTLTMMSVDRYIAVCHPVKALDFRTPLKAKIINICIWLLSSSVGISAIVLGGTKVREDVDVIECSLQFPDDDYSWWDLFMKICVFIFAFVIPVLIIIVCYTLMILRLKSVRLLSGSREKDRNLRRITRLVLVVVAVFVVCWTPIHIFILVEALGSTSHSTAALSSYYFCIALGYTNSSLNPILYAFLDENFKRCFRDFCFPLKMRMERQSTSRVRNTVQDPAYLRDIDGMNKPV
Sequence of Voltage-dependent T-type calcium channel subunit alpha-1H (O95180 whole entry): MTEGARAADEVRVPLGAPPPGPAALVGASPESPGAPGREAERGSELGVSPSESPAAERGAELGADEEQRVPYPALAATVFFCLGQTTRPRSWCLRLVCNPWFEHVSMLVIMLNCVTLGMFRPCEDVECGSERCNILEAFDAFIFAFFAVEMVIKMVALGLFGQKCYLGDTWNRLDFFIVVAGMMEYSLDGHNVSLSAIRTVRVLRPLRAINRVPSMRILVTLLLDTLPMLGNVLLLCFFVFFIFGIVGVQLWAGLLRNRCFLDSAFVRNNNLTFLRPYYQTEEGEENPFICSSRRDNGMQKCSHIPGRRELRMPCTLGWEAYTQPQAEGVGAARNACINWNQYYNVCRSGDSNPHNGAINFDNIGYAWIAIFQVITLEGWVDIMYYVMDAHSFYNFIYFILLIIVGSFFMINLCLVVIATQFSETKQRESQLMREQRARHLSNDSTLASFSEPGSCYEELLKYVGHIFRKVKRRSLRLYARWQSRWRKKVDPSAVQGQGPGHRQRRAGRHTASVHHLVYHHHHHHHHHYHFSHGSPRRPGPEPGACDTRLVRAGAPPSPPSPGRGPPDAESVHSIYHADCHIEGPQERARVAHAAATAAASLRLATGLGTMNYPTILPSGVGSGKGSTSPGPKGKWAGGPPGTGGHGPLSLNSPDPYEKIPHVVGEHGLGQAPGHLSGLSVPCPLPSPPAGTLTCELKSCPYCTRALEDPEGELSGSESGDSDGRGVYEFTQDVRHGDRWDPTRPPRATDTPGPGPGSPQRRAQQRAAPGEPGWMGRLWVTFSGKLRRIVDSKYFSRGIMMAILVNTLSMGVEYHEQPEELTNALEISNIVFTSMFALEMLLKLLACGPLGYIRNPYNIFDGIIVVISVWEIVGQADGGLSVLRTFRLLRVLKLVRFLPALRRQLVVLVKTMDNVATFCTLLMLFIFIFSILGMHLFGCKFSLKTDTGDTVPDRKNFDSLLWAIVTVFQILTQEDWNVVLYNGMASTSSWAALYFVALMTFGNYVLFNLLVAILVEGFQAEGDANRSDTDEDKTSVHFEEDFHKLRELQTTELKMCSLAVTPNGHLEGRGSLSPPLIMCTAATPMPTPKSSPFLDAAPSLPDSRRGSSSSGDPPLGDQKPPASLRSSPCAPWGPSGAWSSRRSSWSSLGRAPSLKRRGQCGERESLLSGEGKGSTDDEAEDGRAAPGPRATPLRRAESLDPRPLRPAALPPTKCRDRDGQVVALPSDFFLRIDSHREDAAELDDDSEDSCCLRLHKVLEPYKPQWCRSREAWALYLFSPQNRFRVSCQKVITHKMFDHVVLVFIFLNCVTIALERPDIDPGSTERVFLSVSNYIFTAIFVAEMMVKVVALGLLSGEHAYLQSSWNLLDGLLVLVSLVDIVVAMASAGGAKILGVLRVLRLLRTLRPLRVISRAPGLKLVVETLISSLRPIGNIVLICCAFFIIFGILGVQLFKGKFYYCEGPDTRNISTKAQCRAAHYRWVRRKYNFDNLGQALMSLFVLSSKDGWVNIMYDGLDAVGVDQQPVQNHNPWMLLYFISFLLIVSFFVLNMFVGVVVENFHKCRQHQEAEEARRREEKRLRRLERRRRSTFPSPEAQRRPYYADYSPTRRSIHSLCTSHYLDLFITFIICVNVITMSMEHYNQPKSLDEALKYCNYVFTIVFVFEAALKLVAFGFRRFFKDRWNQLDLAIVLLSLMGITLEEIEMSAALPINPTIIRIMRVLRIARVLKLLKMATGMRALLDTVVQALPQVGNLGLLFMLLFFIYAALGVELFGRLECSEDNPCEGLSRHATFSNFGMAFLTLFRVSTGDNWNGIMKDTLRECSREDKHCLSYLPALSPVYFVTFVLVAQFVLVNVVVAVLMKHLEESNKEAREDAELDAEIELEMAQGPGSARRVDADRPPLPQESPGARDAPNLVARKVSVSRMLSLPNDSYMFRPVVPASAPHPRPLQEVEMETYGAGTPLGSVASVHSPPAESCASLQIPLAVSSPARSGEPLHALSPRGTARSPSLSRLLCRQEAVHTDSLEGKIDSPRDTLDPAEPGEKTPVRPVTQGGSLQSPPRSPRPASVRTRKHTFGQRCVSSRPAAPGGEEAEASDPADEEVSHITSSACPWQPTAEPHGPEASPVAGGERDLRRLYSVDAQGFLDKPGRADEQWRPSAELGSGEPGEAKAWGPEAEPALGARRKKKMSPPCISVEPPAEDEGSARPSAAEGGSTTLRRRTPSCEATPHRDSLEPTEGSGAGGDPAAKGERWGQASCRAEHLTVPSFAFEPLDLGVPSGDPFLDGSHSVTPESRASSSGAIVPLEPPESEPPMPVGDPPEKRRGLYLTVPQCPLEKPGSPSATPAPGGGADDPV
Sequence of Neutrophil collagenase (P22894 whole entry): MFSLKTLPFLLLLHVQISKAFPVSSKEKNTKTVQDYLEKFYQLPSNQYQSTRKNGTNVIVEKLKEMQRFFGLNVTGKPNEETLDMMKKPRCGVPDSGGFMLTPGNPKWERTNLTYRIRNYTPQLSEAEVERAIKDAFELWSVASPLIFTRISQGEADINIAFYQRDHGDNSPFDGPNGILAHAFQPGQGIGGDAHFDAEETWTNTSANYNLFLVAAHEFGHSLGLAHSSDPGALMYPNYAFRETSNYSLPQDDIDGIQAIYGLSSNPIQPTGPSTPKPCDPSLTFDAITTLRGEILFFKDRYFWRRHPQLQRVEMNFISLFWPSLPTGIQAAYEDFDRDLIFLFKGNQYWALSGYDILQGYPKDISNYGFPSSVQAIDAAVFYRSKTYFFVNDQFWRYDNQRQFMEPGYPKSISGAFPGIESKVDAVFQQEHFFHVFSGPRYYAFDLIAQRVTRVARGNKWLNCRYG
Sequence of Intestinal-type alkaline phosphatase (P09923 whole entry): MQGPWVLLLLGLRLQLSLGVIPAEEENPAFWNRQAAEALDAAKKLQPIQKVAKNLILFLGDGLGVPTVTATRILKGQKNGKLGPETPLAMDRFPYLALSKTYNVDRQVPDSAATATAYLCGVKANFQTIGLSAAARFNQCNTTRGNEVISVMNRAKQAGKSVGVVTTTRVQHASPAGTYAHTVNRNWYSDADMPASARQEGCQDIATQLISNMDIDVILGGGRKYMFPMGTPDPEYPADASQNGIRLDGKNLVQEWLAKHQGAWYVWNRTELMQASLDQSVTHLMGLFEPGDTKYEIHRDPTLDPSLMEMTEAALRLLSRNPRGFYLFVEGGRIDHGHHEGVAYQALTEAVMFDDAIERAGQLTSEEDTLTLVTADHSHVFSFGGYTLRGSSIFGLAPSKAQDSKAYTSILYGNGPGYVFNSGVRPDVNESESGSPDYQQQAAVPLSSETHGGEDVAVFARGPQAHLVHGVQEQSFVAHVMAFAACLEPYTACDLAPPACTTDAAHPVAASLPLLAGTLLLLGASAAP

## CC(C)N=C(NC#N)SCc1ccccc1F
[1]
  AC50: 10.8 µM (active)

## N#Cc1cc2c(nc1SCC(=O)Nc1ccc(Cl)cc1)C1CCN2CC1
[2]
  EC50: 27.9 µM (active)
[3]
  EC50: 20.1 µM (active)
[4]
  EC50: 2.33 µM (active)
[5]
  EC50: > 120 µM (not active)
[6]
  EC50: 5.38 µM (active)
[7]
  EC50: 2.86 µM (active)

## COc1ccc(NC(=O)c2c(Nc3ccccc3)sc(C(=O)c3ccc(F)cc3)c2N)cc1
[8]
  EC50: > 20 µM (inactive)
[9]
  IC50: > 20 µM (inactive)
[10]
  AC50: 2.91 µM (active)
[11]
  IC50: > 20 µM (inactive)
[12]
  AC50: 1.69 µM (active)
[13]
  IC50: > 20 µM (inactive)
[14]
  IC50: > 20 µM (inactive)
[15]
  EC50: > 20 µM (inactive)
[16]
  AC50: 2.46 µM (active)

## CCOc1ccc(-n2c(N)c(C(=O)NCc3ccco3)sc2=S)cc1
[17]
  IC50: > 100 µM (inactive)
[18]
  IC50: > 100 µM (inactive)

## O=C(Cc1coc2ccc3ccccc3c12)NCc1ccccc1
[19]
  IC50: > 100 µM (inactive)

## Cc1ccc(Cn2nc(C)c(NC(=O)c3cc(-c4ccc5c(c4)OCO5)on3)c2C)cc1
[20]
  EC50: 14 µM (active)
[21]
  EC50: 30 µM (active)
[22]
  EC50: > 120 µM (not active)

## O=C(O)C(Cc1ccccc1)NC(=S)Nc1ccccc1 (stereo not given)
[23]
  Ki: 28.8 µM (inactive)

## Cc1ccc(-n2ccc(Cl)c(Cl)c2=O)cc1
[24]
  IC50: > 20 µM (inactive)
[25]
  IC50: > 20 µM (inactive)

## COC(=O)CN(Cc1cccs1)C(=O)c1cccnc1
[26]
  EC50: > 20 µM (inactive)

## CCNC(=O)C1(C)CCCN(Cc2cccc(Oc3ccccc3)c2)C1 (stereo not given)
[27]
  AC50: 45.6 µM (active)

## C#CCSc1nc2c(c(=O)[nH]1)CCC2
[28]
  IC50: > 39.8 µM (active)
[29]
  IC50: > 39.8 µM (inactive)

## CCc1c(O)nc(N)nc1Nc1ccccc1Cl
[30]
  AC50: 7.32 µM (active)
